The assay relates to Lasiodiplodia theobromae. As to the kind of experiment: Antifungal activity against Lasiodiplodia theobromae OCS71 assessed as inhibition of mycelial growth at 100 ug/ml after 4 days by fungicide disk assay. The assay is classed as functional. To be noted: 96 h.

From ChEMBL document CHEMBL1151242, “A new antifungal metabolite from Penicillium expansum” (2004) come the findings set out here.

SMILES strings stand for the structures.

As usually defined, the inhibition is how much of the control response was suppressed.

For the molecule `COc1cc(O)c(C)c2c1[C@@H](OC)O[C@@H](C)C2`, the inhibition at 100 µg/mL amounted to 76%.

For the molecule `COc1cc(O)c(C)c2c1CO[C@@H](C)C2`, the inhibition at 100 µg/mL is below 10%.

In the case of `CCOC1O[C@@H](C)Cc2c(C)c(O)cc(OC)c21` (some centres undefined), the inhibition at 100 µg/mL is 74%.

Regarding `COC1=CC(=O)C(C)=C2C[C@H](C)OC=C12`, the inhibition at 100 µg/mL worked out at 69%.
